Results on 19 compounds are retold here after US20250282794A1 (CURADEV PHARMA LTD, priority 2022, published 2025).

The target in the test is recombinant full length HPK-1 enzyme (Homo sapiens (Human), UniProt Q92918). Kind of test: HPK-1 biochemical enzyme assay (ADP-Glo kinase inhibition). Conditions: recombinant full length HPK-1 6.8 nM, 10 μM ATP, 12.5 μM MBP, 30 mins at 25° C. The method in brief: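 Recombinant full-length human HPK-1 (6.8 nM) incubated 30 min at 25° C. with 10 μM ATP and 12.5 μM swine MBP in 40 mM Tris pH 7.4, 20 mM MgCl2, 50 μM DTT, 0.1 mg/mL BSA. ADP measured by ADP-Glo; IC50 from 10 concentrations, normalized to no-enzyme and vehicle controls.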
(ADP-Glo first removes unused ATP, then detects ADP through luciferase.)

Sequence of recombinant full length HPK-1 enzyme (Q92918 whole entry, species assumed): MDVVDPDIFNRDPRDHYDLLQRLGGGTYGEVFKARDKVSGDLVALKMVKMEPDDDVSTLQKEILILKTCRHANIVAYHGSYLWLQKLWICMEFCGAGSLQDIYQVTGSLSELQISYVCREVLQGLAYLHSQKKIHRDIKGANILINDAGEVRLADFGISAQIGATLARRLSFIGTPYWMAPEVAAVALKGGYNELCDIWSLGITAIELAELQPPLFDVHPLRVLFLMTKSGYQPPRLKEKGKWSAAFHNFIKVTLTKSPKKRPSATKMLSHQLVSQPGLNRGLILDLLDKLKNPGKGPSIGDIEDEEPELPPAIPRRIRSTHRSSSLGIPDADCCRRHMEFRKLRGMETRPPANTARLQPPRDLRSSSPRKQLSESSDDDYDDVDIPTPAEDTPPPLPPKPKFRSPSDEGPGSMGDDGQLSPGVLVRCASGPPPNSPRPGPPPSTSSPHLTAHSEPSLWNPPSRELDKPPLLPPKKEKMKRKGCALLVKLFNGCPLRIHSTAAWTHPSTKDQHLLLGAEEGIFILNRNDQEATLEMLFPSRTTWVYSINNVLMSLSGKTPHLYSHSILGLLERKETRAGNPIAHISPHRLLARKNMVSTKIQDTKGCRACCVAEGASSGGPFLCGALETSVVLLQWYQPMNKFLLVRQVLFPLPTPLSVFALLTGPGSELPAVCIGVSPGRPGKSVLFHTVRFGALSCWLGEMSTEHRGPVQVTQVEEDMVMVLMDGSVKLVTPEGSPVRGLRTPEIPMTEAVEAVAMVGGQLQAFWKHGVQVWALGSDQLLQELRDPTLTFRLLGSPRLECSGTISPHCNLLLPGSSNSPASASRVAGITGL

Consider `Cc1c(Nc2cc[nH]c(=O)c2C(=O)Nc2ccc(N3CCN(C)CC3)nc2)cnc2c1NCC(C)O2` (stereo not shown) [Example 199], for which the half-inhibitory concentration (IC50) (in general, the concentration needed to halve the response being measured) was in the range of 10 to 100 nM. In the case of `Cc1c(Nc2cc[nH]c(=O)c2C(=O)Nc2ccc(N3CCN(C)CC3)c(CCO)c2)cnc2c1NCCO2` [Example 394, N-(3-(2-hydroxyethyl)-4-(4-methylpiperazin-1-yl)phenyl)-4-((8-methyl-2,3-dihydro-1H-pyrido[2,3-b][1,4]oxazin-7-yl)amino)-2-oxo-1,2-dihydropyridine-3-carboxamide], the IC50 was 10 to 100 nM.

In the case of `Cc1c(Nc2cc[nH]c(=O)c2C(=O)Nc2ccc(N3CCN(C(=O)N(C)C)CC3)cc2)cnc2c1NCC(C)O2` (stereo not shown) [Example 182, 4-(4-(4-((3,8-dimethyl-2,3-dihydro-1H-pyrido[2,3-b][1,4]oxazin-7-yl)amino)-2-oxo-1,2-dihydropyridine-3-carboxamido)phenyl)-N,N-dimethylpiperazine-1-carboxamide], the IC50 is ≤ 10 nM. Consider `Cc1c(Nc2cc[nH]c(=O)c2C(=O)Nc2ccc(N3CCC(N)C3)cc2)cnc2c1NCCO2` (stereo not shown) [Example 395, N-(4-(3-aminopyrrolidin-1-yl)phenyl)-4-((8-methyl-2,3-dihydro-1H-pyrido[2,3-b][1,4]oxazin-7-yl)amino)-2-oxo-1,2-dihydropyridine-3-carboxamide], for which the IC50 was in the range of 10 to 100 nM. Take `Cc1c(Nc2cc[nH]c(=O)c2C(=O)Nc2ccc(N3CCN(CCO)CC3)cc2)cnc2c1NCCO2` [Example 105, N-(4-(4-(2-hydroxyethyl)piperazin-1-yl)phenyl)-4-((8-methyl-2,3-dihydro-1H-pyrido[2,3-b][1,4]oxazin-7-yl)amino)-2-oxo-1,2-dihydropyridine-3-carboxamide]: the IC50 was ≤ 10 nM. As to `Cc1c(Nc2cc[nH]c(=O)c2C(=O)Nc2ccc(-c3cccnc3)cc2)cnc2c1NCCO2` [Example 151, 4-((8-methyl-2,3-dihydro-1H-pyrido[2,3-b][1,4]oxazin-7-yl)amino)-2-oxo-N-(4-(pyridin-3-yl)phenyl)-1,2-dihydropyridine-3-carboxamide], the IC50 is 10 to 100 nM. Regarding `Cc1c(Nc2cc[nH]c(=O)c2C(=O)Nc2ccc(N3CCN(C)CC3)c(C(F)(F)F)c2)cnc2c1NCC(C)O2` (stereo not shown) [Example 196, 4-((3,8-dimethyl-2,3-dihydro-1H-pyrido[2,3-b][1,4]oxazin-7-yl)amino)-N-(4-(4-methylpiperazin-1-yl)-3-(trifluoromethyl)phenyl)-2-oxo-1,2-dihydropyridine-3-carboxamide], the IC50 lay in the range of 10 to 100 nM. With `Cc1c(Nc2cc[nH]c(=O)c2C(=O)Nc2ccc(N3CCN(CC(C)C)CC3)cc2)cnc2c1NCCO2` [Example 370, N-(4-(4-isobutylpiperazin-1-yl)phenyl)-4-((8-methyl-2,3-dihydro-1H-pyrido[2,3-b][1,4]oxazin-7-yl)amino)-2-oxo-1,2-dihydropyridine-3-carboxamide], the IC50 was ≤ 10 nM. Take `Cc1c(Nc2cc[nH]c(=O)c2C(=O)Nc2ccc3c(c2)OCC(=O)N3)cnc2c1NCCO2` [Example 269, 4-((8-methyl-2,3-dihydro-1H-pyrido[2,3-b][1,4]oxazin-7-yl)amino)-2-oxo-N-(3-oxo-3,4-dihydro-2H-benzo[b][1,4]oxazin-7-yl)-1,2-dihydropyridine-3-carboxamide]: the half-maximal inhibitory concentration (IC50) was 10 to 100 nM.

Regarding `Cc1c(Nc2cc[nH]c(=O)c2C(=O)Nc2ccc(N3CCN(C(=O)c4ccn(C)n4)CC3)cc2)cnc2c1NCCO2` [Example 322, N-(4-(4-(1-methyl-1H-pyrazole-3-carbonyl)piperazin-1-yl)phenyl)-4-((8-methyl-2,3-dihydro-1H-pyrido[2,3-b][1,4]oxazin-7-yl)amino)-2-oxo-1,2-dihydropyridine-3-carboxamide], the IC50 was 10 to 100 nM. In the case of `Cc1c(Nc2cc[nH]c(=O)c2C(=O)Nc2ccc(N3CCN(C(=O)C4CC4C)CC3)cc2)cnc2c1NCCO2` (stereo not shown) [Example 305, 4-((8-methyl-2,3-dihydro-1H-pyrido[2,3-b][1,4]oxazin-7-yl)amino)-N-(4-(4-(2-methylcyclopropane-1-carbonyl)piperazin-1-yl)phenyl)-2-oxo-1,2-dihydropyridine-3-carboxamide] it was ≤ 10 nM; in that of `CNC(C)C(=O)N1CCN(c2ccc(NC(=O)c3c(Nc4cnc5c(c4C)NCCO5)cc[nH]c3=O)cc2)CC1` (stereo not shown) [Example 354, 4-((8-methyl-2,3-dihydro-1H-pyrido[2,3-b][1,4]oxazin-7-yl)amino)-N-(4-(4-(methylalanyl)piperazin-1-yl)phenyl)-2-oxo-1,2-dihydropyridine-3-carboxamide], 10 to 100 nM; in that of `Cc1c(Nc2cc[nH]c(=O)c2C(=O)Nc2ccc(N3CCN(C(=O)C4(C)CC4)CC3)cc2)cnc2c1NCCO2` [Example 355, 4-((8-methyl-2,3-dihydro-1H-pyrido[2,3-b][1,4]oxazin-7-yl)amino)-N-(4-(4-(1-methylcyclopropane-1-carbonyl)piperazin-1-yl)phenyl)-2-oxo-1,2-dihydropyridine-3-carboxamide], ≤ 10 nM. With `Cc1c(Nc2cc[nH]c(=O)c2C(=O)Nc2ccc(N3CCN(CC(C)O)CC3)cc2)cnc2c1NCCO2` (stereo not shown) [Example 170, N-(4-(4-(2-hydroxypropyl)piperazin-1-yl)phenyl)-4-((8-methyl-2,3-dihydro-1H-pyrido[2,3-b][1,4]oxazin-7-yl)amino)-2-oxo-1,2-dihydropyridine-3-carboxamide], the IC50 was ≤ 10 nM.

Take `Cc1c(Nc2cc[nH]c(=O)c2C(=O)Nc2ccc(N3CCN(C(=O)C(C)C)[C@@H](C)C3)cc2)cnc2c1NCCO2` [Example 343, (S)-N-(4-(4-isobutyryl-3-methylpiperazin-1-yl)phenyl)-4-((8-methyl-2,3-dihydro-1H-pyrido[2,3-b][1,4]oxazin-7-yl)amino)-2-oxo-1,2-dihydropyridine-3-carboxamide]: the concentration for half-maximal inhibition (IC50) was ≤ 10 nM. In the case of `Cc1c(Nc2cc[nH]c(=O)c2C(=O)Nc2ccc(N3CCN(C(=O)N4CC5(COC5)C4)CC3)cc2)cnc2c1NCCO2` [Example 321, N-(4-(4-(2-oxa-6-azaspiro[3.3]heptane-6-carbonyl)piperazin-1-yl)phenyl)-4-((8-methyl-2,3-dihydro-1H-pyrido[2,3-b][1,4]oxazin-7-yl)amino)-2-oxo-1,2-dihydropyridine-3-carboxamide] it was 10 to 100 nM; in that of `Cc1c(Nc2cc[nH]c(=O)c2C(=O)Nc2ccc(S(N)(=O)=O)cc2)cnc2c1NCCO2` [Example 210, 4-((8-methyl-2,3-dihydro-1H-pyrido[2,3-b][1,4]oxazin-7-yl)amino)-2-oxo-N-(4-sulfamoylphenyl)-1,2-dihydropyridine-3-carboxamide], 10 to 100 nM; in that of `Cc1c(Nc2cc[nH]c(=O)c2C(=O)Nc2ccc(N3CCNC(=O)C3)cc2)cnc2c1NCCO2` [Example 268, 4-((8-methyl-2,3-dihydro-1H-pyrido[2,3-b][1,4]oxazin-7-yl)amino)-2-oxo-N-(4-(3-oxopiperazin-1-yl)phenyl)-1,2-dihydropyridine-3-carboxamide], 10 to 100 nM. Take `Cc1c(Nc2cc[nH]c(=O)c2C(=O)Nc2ccc(N3CCN(C)C[C@H]3C)cc2)cnc2c1NCCO2` [Example 241, (R)-N-(4-(2,4-dimethylpiperazin-1-yl)phenyl)-4-((8-methyl-2,3-dihydro-1H-pyrido[2,3-b][1,4]oxazin-7-yl)amino)-2-oxo-1,2-dihydropyridine-3-carboxamide]: the IC50 was ≤ 10 nM.
